Source: ChEMBL document CHEMBL4364309, “Rigidification Dramatically Improves Inhibitor Selectivity for RAF Kinases” (ACS Med Chem Lett, 2019)

Key:
[1] = molecular target: T1, Serine/threonine-protein kinase B-raf (Homo sapiens, UniProt P15056, V600E); assay: Inhibition of recombinant His-tagged BRAF V600E mutant (unknown origin) (444-723 residues) expressed in Escherichia coli BL21(DE3)-RIL using MEKK97R as substrate assessed as reduction in phosphorylation incubated for 20 mins by immunoblot assay
T1 sequence (P15056 2-766 V600E limits assumed): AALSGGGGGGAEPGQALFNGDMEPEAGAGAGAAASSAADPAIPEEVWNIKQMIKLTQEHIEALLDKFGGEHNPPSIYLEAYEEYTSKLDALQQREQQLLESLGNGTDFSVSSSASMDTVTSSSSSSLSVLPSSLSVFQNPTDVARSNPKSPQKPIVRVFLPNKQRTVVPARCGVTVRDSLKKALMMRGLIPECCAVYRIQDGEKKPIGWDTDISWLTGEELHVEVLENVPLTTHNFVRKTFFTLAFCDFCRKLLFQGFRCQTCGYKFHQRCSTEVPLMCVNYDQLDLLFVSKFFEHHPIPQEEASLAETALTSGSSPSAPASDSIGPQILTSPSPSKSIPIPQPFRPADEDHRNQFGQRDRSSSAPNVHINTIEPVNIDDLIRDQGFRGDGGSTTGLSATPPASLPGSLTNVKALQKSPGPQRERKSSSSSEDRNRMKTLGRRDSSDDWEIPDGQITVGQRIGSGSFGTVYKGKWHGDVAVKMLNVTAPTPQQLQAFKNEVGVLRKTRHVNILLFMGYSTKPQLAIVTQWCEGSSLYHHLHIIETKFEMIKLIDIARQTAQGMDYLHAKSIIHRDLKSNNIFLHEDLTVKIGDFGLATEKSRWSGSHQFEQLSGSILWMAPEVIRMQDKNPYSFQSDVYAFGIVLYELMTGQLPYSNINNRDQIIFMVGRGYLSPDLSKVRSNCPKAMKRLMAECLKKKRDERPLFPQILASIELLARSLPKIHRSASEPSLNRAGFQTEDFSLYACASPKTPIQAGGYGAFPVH

A-375 = assay: Antiproliferative activity at human A375 cells expressing BRAF V600E mutant assessed as reduction in cell viability incubated for 96 hrs by MTT assay; type: functional, cell-based; conditions: A-375, 96 h
[2] = molecular target: Serine/threonine-protein kinase B-raf (Homo sapiens) (UniProt P15056); assay: Inhibition of BRAF (unknown origin) at 1 uM relative to control
Serine/threonine-protein kinase B-raf (Homo sapiens), sequence (P15056 whole entry): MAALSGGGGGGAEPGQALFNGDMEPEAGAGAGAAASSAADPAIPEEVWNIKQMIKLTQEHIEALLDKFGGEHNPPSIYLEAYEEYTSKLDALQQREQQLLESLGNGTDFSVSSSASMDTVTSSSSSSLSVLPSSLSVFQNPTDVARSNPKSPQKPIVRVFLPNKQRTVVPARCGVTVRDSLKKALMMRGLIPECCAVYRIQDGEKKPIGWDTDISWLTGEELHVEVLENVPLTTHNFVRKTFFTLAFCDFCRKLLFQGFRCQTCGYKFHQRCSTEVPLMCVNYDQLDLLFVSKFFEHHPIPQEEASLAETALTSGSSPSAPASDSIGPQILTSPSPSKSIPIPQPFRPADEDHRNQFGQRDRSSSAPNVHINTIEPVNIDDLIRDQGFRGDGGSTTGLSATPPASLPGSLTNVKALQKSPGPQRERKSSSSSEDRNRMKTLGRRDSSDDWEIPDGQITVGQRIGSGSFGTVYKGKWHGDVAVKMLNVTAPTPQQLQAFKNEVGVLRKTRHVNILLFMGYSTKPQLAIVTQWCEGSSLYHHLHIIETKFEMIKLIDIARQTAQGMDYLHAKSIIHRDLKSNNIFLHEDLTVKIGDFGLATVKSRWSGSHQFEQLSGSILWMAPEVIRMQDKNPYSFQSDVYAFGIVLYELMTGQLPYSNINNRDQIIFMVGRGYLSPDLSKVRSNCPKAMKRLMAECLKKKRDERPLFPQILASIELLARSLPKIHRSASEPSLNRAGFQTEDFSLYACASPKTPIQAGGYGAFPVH

[3] = molecular target: RAF proto-oncogene serine/threonine-protein kinase (Homo sapiens) (UniProt P04049); assay: Inhibition of CRAF (unknown origin) at 1 uM relative to control
RAF proto-oncogene serine/threonine-protein kinase (Homo sapiens), sequence (P04049 whole entry): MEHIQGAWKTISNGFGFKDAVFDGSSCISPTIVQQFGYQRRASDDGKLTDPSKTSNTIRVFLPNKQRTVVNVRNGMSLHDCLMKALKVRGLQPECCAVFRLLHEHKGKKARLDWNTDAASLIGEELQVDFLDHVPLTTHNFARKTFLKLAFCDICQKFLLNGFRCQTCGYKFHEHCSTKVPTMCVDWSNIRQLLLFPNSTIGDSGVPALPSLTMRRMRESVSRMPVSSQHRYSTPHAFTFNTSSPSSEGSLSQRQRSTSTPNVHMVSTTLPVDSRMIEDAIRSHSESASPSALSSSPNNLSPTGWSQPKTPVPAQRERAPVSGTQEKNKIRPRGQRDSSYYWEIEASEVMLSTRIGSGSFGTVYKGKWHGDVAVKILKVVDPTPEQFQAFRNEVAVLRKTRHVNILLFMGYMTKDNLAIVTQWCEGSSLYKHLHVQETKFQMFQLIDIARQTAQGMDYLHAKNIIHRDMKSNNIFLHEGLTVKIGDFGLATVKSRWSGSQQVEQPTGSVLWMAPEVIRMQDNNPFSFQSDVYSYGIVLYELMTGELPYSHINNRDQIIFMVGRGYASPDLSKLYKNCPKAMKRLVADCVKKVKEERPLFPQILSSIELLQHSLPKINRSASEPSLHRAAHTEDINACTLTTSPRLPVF

[4] = molecular target: Protein-tyrosine kinase 6 (Homo sapiens) (UniProt Q13882); assay: Inhibition of BRK (unknown origin) at 1 uM relative to control
Protein-tyrosine kinase 6 (Homo sapiens), sequence (Q13882 whole entry, looked up): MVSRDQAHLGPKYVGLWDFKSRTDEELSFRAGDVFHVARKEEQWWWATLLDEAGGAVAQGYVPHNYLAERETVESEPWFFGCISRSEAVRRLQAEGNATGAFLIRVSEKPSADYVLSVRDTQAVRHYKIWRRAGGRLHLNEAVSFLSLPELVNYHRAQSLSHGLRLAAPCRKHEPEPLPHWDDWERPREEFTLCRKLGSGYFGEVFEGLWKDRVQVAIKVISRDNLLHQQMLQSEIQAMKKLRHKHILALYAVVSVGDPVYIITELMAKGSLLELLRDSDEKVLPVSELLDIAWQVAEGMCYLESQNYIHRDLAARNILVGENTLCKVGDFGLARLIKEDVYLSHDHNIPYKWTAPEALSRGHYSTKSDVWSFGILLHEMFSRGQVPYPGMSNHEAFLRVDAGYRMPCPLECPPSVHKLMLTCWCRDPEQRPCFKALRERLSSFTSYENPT

[5] = molecular target: Macrophage colony-stimulating factor 1 receptor (Homo sapiens) (UniProt P07333); assay: Inhibition of FMS (unknown origin) at 1 uM relative to control
Macrophage colony-stimulating factor 1 receptor (Homo sapiens), sequence (P07333 whole entry): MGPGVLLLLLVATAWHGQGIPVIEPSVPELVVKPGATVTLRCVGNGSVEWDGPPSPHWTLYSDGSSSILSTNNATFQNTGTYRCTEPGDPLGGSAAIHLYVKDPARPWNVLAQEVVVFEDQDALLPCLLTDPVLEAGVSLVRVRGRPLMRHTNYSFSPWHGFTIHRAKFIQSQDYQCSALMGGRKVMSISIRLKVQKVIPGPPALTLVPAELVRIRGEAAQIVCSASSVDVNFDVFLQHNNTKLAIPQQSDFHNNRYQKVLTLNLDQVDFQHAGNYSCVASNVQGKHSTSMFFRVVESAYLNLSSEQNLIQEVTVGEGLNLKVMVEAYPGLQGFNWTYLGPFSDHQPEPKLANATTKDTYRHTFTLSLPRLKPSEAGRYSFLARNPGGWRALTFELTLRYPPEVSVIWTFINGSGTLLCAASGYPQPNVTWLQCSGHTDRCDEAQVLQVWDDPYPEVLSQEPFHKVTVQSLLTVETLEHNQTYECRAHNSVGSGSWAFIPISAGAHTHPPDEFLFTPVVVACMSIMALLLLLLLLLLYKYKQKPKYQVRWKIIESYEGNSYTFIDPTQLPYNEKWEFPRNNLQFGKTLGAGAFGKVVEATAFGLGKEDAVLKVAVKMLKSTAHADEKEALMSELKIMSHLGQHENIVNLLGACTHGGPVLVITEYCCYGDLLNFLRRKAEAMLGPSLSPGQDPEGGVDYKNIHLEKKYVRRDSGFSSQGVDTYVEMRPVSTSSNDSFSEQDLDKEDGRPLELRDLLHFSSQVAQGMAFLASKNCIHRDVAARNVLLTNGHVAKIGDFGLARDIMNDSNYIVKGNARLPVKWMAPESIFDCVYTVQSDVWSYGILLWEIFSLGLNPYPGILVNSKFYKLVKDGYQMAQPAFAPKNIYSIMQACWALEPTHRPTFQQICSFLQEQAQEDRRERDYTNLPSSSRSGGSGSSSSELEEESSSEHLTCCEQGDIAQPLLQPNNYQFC

[6] = molecular target: T1, Serine/threonine-protein kinase B-raf; assay: Inhibition of BRAF V600E in human A375 cells assessed as reduction in ERK phosphorylation incubated for 1 hr by immunoblot analysis; type: cell-based
Malme-3M = assay: Growth inhibition of human MALME-3M cells harboring BRAF V600E mutant incubated for 48 hrs by sulforhodamine B assay; type: functional
MDA-MB-435 = assay: Growth inhibition of human MDA-MB-435 cells harboring BRAF V600E mutant incubated for 48 hrs by sulforhodamine B assay; type: functional
SK-MEL-5 = assay: Growth inhibition of human SK-MEL-5 cells harboring BRAF V600E mutant incubated for 48 hrs by sulforhodamine B assay; type: functional
[7] = tested on: Serine/threonine-protein kinase B-raf (Homo sapiens), P15056 [V600E]; assay: Potency index, ratio vemurafenib IC50 to test compound IC50 for Inhibition of recombinant His-tagged BRAF V600E mutant (unknown origin) (444 to 723 residues) expressed in Escherichia coli BL21(DE3)-RIL
Serine/threonine-protein kinase B-raf (Homo sapiens), P15056 [V600E], sequence (P15056 whole entry V600E, the tested form may be a part): as the sequence (P15056 whole entry) above, with V600E counted along it

Structure (SMILES) | IC50 [1] | IC50 (A-375) | other results
CC(C)n1nc(C#Cc2cccc3c(Nc4ccc(Cl)cc4)nccc23)c2c(N)ncnc21 | 29 nM | > 10000 nM | –
CCn1nc(C#Cc2c(C)ccc3c(Nc4ccc(Cl)cc4)nccc23)c2c(N)ncnc21 | 8 nM | 417 nM | inhibition [2]: > 85%; inhibition [3]: > 85%; inhibition [4]: > 85%; inhibition [5]: > 85%; IC50 [6]: 420 nM; Activity (Malme-3M): Dose-dependent effect; GI (Malme-3M): 7.1 µM; Activity (MDA-MB-435): Dose-dependent effect; GI (MDA-MB-435): 4.6 µM; Activity (SK-MEL-5): Dose-dependent effect; GI (SK-MEL-5): 6.6 µM; Ratio IC50 [7]: 2
Cc1cn(-c2cc(Nc3nccc4c(C#Cc5nn(C(C)C)c6ncnc(N)c56)cccc34)cc(C(F)(F)F)c2)cn1 | > 300 nM | – | –
CCn1nc(C#Cc2cccc3c(Nc4cccc(C(F)(F)F)c4)nccc23)c2c(N)ncnc21 | 41 nM | > 10000 nM | –
CC(C)n1nc(C#Cc2cccc3c(Nc4ccc(Cl)c(C(F)(F)F)c4)nccc23)c2c(N)ncnc21 | > 300 nM | – | –
CC(C)n1nc(C#Cc2cccc3c(Nc4cccc(C(F)(F)F)c4)cccc23)c2c(N)ncnc21 | > 300 nM | – | –
Cc1ccc(Nc2nccc3c(C#Cc4nn(C(C)C)c5ncnc(N)c45)cccc23)cc1C(F)(F)F | > 300 nM | – | –
CC(C)n1nc(C#Cc2cccc3c(Oc4cccc(C(F)(F)F)c4)nccc23)c2c(N)ncnc21 | > 300 nM | – | –
CCCn1nc(C#Cc2cccc3c(Nc4cccc(C(F)(F)F)c4)nccc23)c2c(N)ncnc21 | > 300 nM | – | –
Cc1ccc2c(Nc3cccc(C(F)(F)F)c3)nccc2c1C#Cc1nn(C(C)C)c2ncnc(N)c12 | 21 nM | 869 nM | –
CC(C)n1nc(C#Cc2cccc3c(Nc4cccc(C(F)(F)F)c4)ncnc23)c2c(N)ncnc21 | > 300 nM | – | –
CCCS(=O)(=O)Nc1ccc(F)c(C(=O)c2c[nH]c3ncc(-c4ccc(Cl)cc4)cc23)c1F | – | – | inhibition [2]: > 85%; inhibition [3]: > 85%
CC(C)n1nc(C#Cc2cccc3c(Nc4cccc(C(F)(F)F)c4)nccc23)c2c(N)ncnc21 | 140 nM | > 10000 nM | inhibition [2]: > 85%; inhibition [3]: > 85%
